Calls of active or inactive are those of the source. No cut-off for these calls is given here.
Experiments:
MDA-MB-231 [1] = test: Antiproliferative activity against human MDA-MB-231 cells after 24 hrs by MTT assay; type: functional, cell-based; conditions: MDA-MB-231, 24 h
HepG2 [2] = test: Antiproliferative activity against human HepG2 cells after 24 hrs by MTT assay; type: functional, cell-based; conditions: HepG2, 24 h
MCF7 [3] = test: Antiproliferative activity against human MCF7 cells after 24 hrs by MTT assay; type: functional, cell-based; conditions: MCF7, 24 h
K562 [4] = test: Antiproliferative activity against human K562 cells after 24 hrs by MTT assay; type: functional, cell-based; conditions: K562, 24 h
HepG2 [5] = test: Induction of apoptosis in human HepG2 cells assessed as upregulation of Bid expression co-treated with pyranoxanthone at 1:1 molar ratio after 24 hrs by Western blot method; type: functional, cell-based
HepG2 [6] = test: Induction of apoptosis in human HepG2 cells assessed as early apoptotic cells co-treated with pyranoxanthone at 1:1 molar ratio after 24 hrs by annexin-V/propidium iodide staining-based flow cytometric method relative to control; type: functional
HepG2 [7] = test: Induction of apoptosis in human HepG2 cells assessed as ratio of Bax/Bcl-2 co-treated with pyranoxanthone at 1:1 molar ratio after 24 hrs by Western blot method (reference value: 0.23); type: functional
HepG2 [8] = test: Induction of apoptosis in human HepG2 cells assessed as increase in cleaved caspase-3 levels at 0.2 uM after 24 hrs by Western blot method; type: functional, cell-based
NIH3T3 = test: Antiproliferative activity against mouse NIH/3T3 cells after 24 hrs by MTT assay; type: cell-based; conditions: Mus musculus, NIH3T3, 24 h
HepG2 [9] = test: Induction of apoptosis in human HepG2 cells assessed as increase in cleaved caspase-9 levels at 0.2 uM after 24 hrs by Western blot method; type: functional, cell-based
L02 = test: Antiproliferative activity against human HL-7702 cells after 24 hrs by MTT assay; type: functional, cell-based; conditions: L02, 24 h
HepG2 [10] = test: Induction of apoptosis in human HepG2 cells assessed as increase in cleaved caspase-3 levels co-treated with pyranoxanthone at 1:1 molar ratio after 24 hrs by Western blot method; type: functional, cell-based
HepG2 [11] = test: Cell cycle arrest in human HepG2 cells assessed as accumulation at S phase at 0.2 uM after 28 hrs by propidium iodide staining-based flow cytometric method relative to control
HepG2 [12] = test: Induction of apoptosis in human HepG2 cells assessed as early apoptotic cells co-treated with DMXAA at 1:1 molar ratio after 24 hrs by annexin-V/propidium iodide staining-based flow cytometric method relative to control; type: functional
HepG2 [13] = test: Induction of apoptosis in human HepG2 cells assessed as increase in cleaved PARP levels co-treated with pyranoxanthone at 1:1 molar ratio after 24 hrs by Western blot method; type: functional, cell-based
HepG2 [14] = test: Induction of apoptosis in human HepG2 cells assessed as increase in cleaved PARP levels at 0.2 uM after 24 hrs by Western blot method; type: functional, cell-based
[15] = target: Tumour suppressor p53/oncoprotein Mdm2 (Homo sapiens) (UniProt P04637+Q00987); test: Inhibition of MDM2/p53 interaction in human HepG2 cells assessed as increase in p53 to MDM2 ratio co-treated with pyranoxanthone at 1:1 molar ratio after 24 hrs by Western blot method (reference value: 0.083); type: cell-based
HepG2 [16] = test: Induction of apoptosis in human HepG2 cells assessed as late apoptotic cells at 0.2 uM after 24 hrs by annexin-V/propidium iodide staining-based flow cytometric method relative to control; type: functional
K562 [17] = test: Antiproliferative activity against human K562 cells co-treated with pyranoxanthone at 1:1 molar ratio after 24 hrs by MTT assay; type: functional, cell-based; conditions: K562, 24 h
HepG2 [18] = test: Induction of apoptosis in human HepG2 cells assessed as increase in cleaved caspase-9 levels co-treated with pyranoxanthone at 1:1 molar ratio after 24 hrs by Western blot method; type: functional, cell-based
MDA-MB-231 [19] = test: Antiproliferative activity against human MDA-MB-231 cells co-treated with pyranoxanthone at 1:1 molar ratio after 24 hrs by MTT assay; type: functional, cell-based; conditions: MDA-MB-231, 24 h
HepG2 [20] = test: Antiproliferative activity against human HepG2 cells co-treated with pyranoxanthone at 1:1 molar ratio after 24 hrs by MTT assay; type: functional, cell-based; conditions: HepG2, 24 h
HepG2 [21] = test: Induction of apoptosis in human HepG2 cells assessed as downregulation of Bcl-xL expression co-treated with pyranoxanthone at 1:1 molar ratio after 24 hrs by Western blot method; type: functional, cell-based
HepG2 [22] = test: Induction of apoptosis in human HepG2 cells assessed as early apoptotic cells at 0.2 uM after 24 hrs by annexin-V/propidium iodide staining-based flow cytometric method relative to control; type: functional
MCF7 [23] = test: Antiproliferative activity against human MCF7 cells co-treated with pyranoxanthone at 1:1 molar ratio after 24 hrs by MTT assay; type: functional, cell-based; conditions: MCF7, 24 h
HepG2 [24] = test: Cell cycle arrest in human HepG2 cells assessed as accumulation at S phase co-treated with pyranoxanthone at 1:1 molar ratio after 28 hrs by propidium iodide staining-based flow cytometric method

Sequence of Tumour suppressor p53/oncoprotein Mdm2 (Homo sapiens) (P04637 whole entry, looked up): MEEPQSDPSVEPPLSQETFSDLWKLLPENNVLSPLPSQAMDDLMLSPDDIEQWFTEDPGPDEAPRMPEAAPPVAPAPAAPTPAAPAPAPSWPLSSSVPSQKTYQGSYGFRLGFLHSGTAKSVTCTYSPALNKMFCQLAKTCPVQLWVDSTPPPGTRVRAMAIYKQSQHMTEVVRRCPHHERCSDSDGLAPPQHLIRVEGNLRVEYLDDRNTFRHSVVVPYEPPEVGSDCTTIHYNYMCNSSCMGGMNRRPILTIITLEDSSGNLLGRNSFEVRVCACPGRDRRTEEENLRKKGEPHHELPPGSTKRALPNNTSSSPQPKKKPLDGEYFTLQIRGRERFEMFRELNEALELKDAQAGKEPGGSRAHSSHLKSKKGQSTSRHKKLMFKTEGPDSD
Sequence of Tumour suppressor p53/oncoprotein Mdm2 (Homo sapiens) (Q00987 whole entry, looked up): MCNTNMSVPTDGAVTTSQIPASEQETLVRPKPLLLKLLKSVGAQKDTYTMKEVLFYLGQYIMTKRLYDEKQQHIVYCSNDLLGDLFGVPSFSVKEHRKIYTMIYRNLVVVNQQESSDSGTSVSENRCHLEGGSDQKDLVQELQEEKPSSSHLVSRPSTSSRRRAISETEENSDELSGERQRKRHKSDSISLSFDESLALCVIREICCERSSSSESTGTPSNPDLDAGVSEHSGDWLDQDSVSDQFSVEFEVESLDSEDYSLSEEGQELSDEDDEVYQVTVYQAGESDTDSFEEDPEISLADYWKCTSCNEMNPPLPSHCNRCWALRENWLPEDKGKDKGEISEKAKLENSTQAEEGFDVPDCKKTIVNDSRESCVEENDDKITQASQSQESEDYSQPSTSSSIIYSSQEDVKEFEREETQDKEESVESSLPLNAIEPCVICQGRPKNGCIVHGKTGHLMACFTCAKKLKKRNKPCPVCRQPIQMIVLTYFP

For `Cc1ccc2c(=O)c3cccc(CC(=O)OCCCCOc4c5c(cc6c(=O)c7ccccc7oc46)CCC(C)(C)O5)c3oc2c1C`, which IC50 (MDA-MB-231 [1]) is on record?
The IC50 was 19.6 µM.

And the IC50 (HepG2 [2])?
Its IC50 is 11.9 µM.

And the IC50 (MCF7 [3])?
The IC50 was 33.2 µM.

And the IC50 (K562 [4])?
The IC50 was 20.6 µM.

`Cc1ccc2c(=O)c3cccc(CC(=O)OCCCOc4c5c(cc6c(=O)c7ccccc7oc46)CCC(C)(C)O5)c3oc2c1C` was tested. Which IC50 (MDA-MB-231 [1]) did it give?
The IC50 was 32.2 µM.

What about the IC50 (HepG2 [2]) of the same molecule?
The IC50 was 32.7 µM.

What about the IC50 (MCF7 [3]) of the same molecule?
The IC50 was 51.7 µM.

And the IC50 (K562 [4])?
The IC50 was 32.3 µM.

`Cc1ccc2c(=O)c3cccc(CC(=O)O)c3oc2c1C` [VADIMEZAN] was tested. Which Activity (HepG2 [5]) did it give?
Its Activity is “Active”.

What about the Activity (HepG2 [6]) of the same molecule?
Its Activity is 15%.

What about the Ratio (HepG2 [7]) of the same molecule?
The Ratio was 0.58.

What about the Activity (HepG2 [8]) of the same molecule?
The Activity was “Active”.

And the IC50 (NIH3T3)?
Its IC50 is 67.8 µM.

And the Activity (HepG2 [9])?
The Activity was “Active”.

And the IC50 (L02)?
Its IC50 is 101 µM.

What about the Activity (HepG2 [10]) of the same molecule?
Its Activity is “Active”.

What about the Activity (HepG2 [11]) of the same molecule?
Its Activity is “Active”.

What about the Activity (HepG2 [12]) of the same molecule?
The Activity was 15%.

And the Activity (HepG2 [13])?
The Activity was “Active”.

What about the Activity (HepG2 [14]) of the same molecule?
Its Activity is “Active”.

What about the fold change (FC) [15] of the same molecule?
The fold change (FC) was 0.67.

What about the Activity (HepG2 [16]) of the same molecule?
Its Activity is 7%.

And the IC50 (K562 [17])?
Its IC50 is 19.1 µM.

And the Activity (HepG2 [18])?
The Activity was “Active”.

And the IC50 (MDA-MB-231 [19])?
The IC50 was 12.1 µM.

And the IC50 (HepG2 [20])?
The IC50 was 21.2 µM.

What about the Activity (HepG2 [21]) of the same molecule?
The Activity was “Active”.

What about the Activity (HepG2 [22]) of the same molecule?
The Activity was 13%.

What about the IC50 (MCF7 [23]) of the same molecule?
Its IC50 is 11.9 µM.

What about the Activity (HepG2 [24]) of the same molecule?
Its Activity is “Active”.
